{"source": "paper PMC5762315", "about": "“Inhibition of polo-like kinase 4 (PLK4): a new therapeutic option for rhabdoid tumors and pediatric medulloblastoma” (Oncotarget, 2017)", "key": {"AURKC": {"molecular_target": "AURKC (Homo sapiens, UniProt Q9UQB9)", "assay": "Kinase activity screening (SelectScreen), AURKC", "format": "biochemical", "settings": "read-out: kinase activity inhibited"}, "MON rhabdoid cells": {"test_system": "MON rhabdoid cells", "assay": "Immunofluorescence for gamma-tubulin (centriole number), MON", "format": "cell-based, human", "settings": "48 hours", "method": "(§1) The cells were then blocked in blocking buffer (5% BSA (Jackson Immuno Research Laboratories Inc., USA) in PBST) for 1 hour at RT. The primary antibody ([…] 1:500, Sigma, USA) diluted in 1% BSA in PBST was then added and incubated at 4°C overnight. Then, the cells were washed with 1X PBS thrice. Secondary antibody (Anti-Rabbit IgG (H+L) F (ab’) 2, 1:500, Sigma, USA) diluted in 1% BSA in PBST was added and incubated at RT for 2 hours. Three time washes with 1X PBS were performed. Then, 1mL of DAPI (Thermo Fisher Scientific, USA) in PBS (0.5μl of DAPI in 10 ml PBS) was added to the cells and incubated for 10 min at RT. Finally, 3 time washes with 1X PBS were performed and slides were mounted using Mounting Medium (Thermo Fisher Scientific, USA)."}, "various kinases [1]": {"molecular_target": "various kinases (Homo sapiens, UniProt P45983)", "sequence (P45983 whole entry)": "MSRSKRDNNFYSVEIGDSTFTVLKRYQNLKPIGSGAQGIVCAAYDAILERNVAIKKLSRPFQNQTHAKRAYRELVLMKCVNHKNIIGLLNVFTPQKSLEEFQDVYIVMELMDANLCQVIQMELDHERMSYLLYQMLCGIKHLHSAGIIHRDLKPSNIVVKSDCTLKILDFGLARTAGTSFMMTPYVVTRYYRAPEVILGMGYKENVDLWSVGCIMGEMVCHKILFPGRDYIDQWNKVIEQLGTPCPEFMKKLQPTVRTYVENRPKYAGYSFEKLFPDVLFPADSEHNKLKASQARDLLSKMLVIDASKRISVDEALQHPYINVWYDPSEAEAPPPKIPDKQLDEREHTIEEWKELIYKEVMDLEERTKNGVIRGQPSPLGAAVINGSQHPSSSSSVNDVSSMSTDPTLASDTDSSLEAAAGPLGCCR", "assay": "biochemical", "format": "biochemical", "settings": "MAPK8 (JNK1)"}, "various kinases [2]": {"molecular_target": "various kinases (Homo sapiens, UniProt Q9H1R3)", "assay": "biochemical", "format": "biochemical", "settings": "MYLK2 (skMLCK)"}, "various kinases [3]": {"molecular_target": "various kinases (Homo sapiens, UniProt Q8IU85)", "sequence (Q8IU85 whole entry)": "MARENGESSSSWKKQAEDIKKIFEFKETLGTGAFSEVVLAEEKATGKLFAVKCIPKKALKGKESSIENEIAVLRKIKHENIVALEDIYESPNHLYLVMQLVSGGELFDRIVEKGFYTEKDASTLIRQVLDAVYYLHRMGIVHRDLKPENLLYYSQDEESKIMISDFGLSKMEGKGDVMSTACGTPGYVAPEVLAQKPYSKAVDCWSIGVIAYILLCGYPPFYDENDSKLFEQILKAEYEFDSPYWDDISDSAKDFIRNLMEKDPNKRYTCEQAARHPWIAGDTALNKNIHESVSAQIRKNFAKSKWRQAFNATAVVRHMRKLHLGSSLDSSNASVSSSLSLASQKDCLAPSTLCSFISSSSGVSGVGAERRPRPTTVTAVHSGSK", "assay": "biochemical", "format": "biochemical", "settings": "CAMK1D (CaMKI delta)"}, "various kinases [4]": {"molecular_target": "T1, various kinases (Homo sapiens, UniProt Q96PF2)", "T1 sequence (Q96PF2 1-358)": "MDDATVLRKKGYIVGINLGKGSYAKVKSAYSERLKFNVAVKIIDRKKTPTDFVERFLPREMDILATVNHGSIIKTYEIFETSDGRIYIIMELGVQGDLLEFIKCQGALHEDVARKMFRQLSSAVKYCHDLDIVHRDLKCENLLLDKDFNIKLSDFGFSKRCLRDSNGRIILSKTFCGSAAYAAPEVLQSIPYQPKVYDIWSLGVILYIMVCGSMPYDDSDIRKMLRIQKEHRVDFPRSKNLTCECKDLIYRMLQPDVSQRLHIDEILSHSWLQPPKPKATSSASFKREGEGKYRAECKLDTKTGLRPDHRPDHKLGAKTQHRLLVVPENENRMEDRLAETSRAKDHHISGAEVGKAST", "assay": "biochemical", "format": "biochemical", "settings": "kinase STK22B (TSSK2); ZLYTE"}, "various kinases [5]": {"molecular_target": "various kinases (Homo sapiens, UniProt Q8TDC3)", "sequence (Q8TDC3 whole entry)": "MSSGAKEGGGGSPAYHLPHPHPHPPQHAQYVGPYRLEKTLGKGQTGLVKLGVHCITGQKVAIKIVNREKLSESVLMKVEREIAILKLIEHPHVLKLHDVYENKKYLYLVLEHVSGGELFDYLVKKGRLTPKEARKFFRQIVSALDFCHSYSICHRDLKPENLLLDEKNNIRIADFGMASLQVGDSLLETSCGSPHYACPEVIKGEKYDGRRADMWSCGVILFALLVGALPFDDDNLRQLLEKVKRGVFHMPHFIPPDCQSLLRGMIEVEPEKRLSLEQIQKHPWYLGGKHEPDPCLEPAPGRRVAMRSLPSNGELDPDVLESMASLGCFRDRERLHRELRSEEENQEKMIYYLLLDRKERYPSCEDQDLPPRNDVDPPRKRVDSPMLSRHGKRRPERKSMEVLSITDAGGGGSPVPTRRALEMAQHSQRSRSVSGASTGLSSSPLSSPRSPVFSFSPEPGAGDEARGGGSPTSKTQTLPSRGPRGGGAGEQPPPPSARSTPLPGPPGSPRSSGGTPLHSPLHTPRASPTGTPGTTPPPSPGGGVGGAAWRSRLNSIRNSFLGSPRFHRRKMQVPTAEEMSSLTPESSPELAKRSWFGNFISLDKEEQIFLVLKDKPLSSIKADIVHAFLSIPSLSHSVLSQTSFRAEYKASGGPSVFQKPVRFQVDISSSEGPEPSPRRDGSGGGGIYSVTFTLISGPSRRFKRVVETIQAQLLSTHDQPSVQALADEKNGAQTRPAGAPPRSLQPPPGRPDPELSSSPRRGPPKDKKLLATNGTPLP", "assay": "biochemical", "format": "biochemical", "settings": "BRSK1 (SAD1)"}, "various kinases [6]": {"molecular_target": "various kinases (Homo sapiens, UniProt Q9UPE1)", "sequence (Q9UPE1 whole entry)": "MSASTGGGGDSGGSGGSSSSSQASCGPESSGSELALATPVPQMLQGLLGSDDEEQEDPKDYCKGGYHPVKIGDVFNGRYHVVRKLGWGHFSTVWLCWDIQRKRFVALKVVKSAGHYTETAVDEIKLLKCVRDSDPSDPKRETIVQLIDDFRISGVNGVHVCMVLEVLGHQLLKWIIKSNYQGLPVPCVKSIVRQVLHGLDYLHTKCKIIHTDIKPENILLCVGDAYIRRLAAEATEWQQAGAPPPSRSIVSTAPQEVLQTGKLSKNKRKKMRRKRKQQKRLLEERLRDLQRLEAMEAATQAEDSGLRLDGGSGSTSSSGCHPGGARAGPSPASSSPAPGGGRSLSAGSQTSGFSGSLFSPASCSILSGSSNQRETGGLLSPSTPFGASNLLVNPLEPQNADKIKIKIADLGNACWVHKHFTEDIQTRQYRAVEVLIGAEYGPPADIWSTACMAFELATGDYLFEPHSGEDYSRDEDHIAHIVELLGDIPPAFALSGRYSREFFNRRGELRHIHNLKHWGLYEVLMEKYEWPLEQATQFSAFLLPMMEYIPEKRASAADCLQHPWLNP", "assay": "biochemical", "format": "biochemical", "settings": "kinase STK23 (MSSK1); ZLYTE"}, "various kinases [7]": {"molecular_target": "various kinases (Homo sapiens, UniProt P00533, C797S/L858R/T790M)", "sequence (P00533 25-1210 T790M/C797S/L858R)": "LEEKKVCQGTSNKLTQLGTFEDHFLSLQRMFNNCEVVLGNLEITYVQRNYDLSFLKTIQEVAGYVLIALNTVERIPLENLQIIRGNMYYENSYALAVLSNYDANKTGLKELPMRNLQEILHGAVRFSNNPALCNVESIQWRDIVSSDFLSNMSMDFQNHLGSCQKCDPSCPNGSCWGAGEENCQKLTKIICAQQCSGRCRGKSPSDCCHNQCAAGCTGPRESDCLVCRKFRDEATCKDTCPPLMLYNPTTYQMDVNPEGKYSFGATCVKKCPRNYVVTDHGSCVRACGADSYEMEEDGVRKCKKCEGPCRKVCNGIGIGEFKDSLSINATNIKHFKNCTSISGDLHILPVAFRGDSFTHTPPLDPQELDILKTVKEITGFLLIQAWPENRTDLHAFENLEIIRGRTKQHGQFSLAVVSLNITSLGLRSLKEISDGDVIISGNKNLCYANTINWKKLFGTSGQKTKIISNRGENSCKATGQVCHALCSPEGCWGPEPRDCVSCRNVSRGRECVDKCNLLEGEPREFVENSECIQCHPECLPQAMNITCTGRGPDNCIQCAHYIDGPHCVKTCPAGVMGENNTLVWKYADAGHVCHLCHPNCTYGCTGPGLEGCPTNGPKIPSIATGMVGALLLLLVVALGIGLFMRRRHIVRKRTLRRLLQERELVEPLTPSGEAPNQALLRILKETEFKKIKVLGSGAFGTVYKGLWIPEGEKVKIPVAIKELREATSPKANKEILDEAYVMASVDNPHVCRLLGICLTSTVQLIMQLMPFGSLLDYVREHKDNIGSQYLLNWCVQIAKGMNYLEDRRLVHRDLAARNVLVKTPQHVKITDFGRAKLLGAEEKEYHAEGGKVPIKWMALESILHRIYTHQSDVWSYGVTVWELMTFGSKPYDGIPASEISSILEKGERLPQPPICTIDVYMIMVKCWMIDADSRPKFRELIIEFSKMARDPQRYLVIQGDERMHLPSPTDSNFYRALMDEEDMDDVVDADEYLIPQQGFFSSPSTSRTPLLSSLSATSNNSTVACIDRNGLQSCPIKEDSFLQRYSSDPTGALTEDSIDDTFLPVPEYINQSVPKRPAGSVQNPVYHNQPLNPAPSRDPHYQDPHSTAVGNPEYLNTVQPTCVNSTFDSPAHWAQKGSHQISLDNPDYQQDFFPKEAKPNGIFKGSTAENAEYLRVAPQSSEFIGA", "assay": "biochemical", "format": "biochemical", "settings": "EGFR (ErbB1) T790M C797S L858R"}, "various kinases [8]": {"molecular_target": "various kinases (Homo sapiens, UniProt Q9P289)", "assay": "biochemical", "format": "biochemical", "settings": "MST4"}, "various kinases [9]": {"molecular_target": "various kinases (Homo sapiens, UniProt P21802, N549H)", "sequence (P21802 22-821 N549H)": "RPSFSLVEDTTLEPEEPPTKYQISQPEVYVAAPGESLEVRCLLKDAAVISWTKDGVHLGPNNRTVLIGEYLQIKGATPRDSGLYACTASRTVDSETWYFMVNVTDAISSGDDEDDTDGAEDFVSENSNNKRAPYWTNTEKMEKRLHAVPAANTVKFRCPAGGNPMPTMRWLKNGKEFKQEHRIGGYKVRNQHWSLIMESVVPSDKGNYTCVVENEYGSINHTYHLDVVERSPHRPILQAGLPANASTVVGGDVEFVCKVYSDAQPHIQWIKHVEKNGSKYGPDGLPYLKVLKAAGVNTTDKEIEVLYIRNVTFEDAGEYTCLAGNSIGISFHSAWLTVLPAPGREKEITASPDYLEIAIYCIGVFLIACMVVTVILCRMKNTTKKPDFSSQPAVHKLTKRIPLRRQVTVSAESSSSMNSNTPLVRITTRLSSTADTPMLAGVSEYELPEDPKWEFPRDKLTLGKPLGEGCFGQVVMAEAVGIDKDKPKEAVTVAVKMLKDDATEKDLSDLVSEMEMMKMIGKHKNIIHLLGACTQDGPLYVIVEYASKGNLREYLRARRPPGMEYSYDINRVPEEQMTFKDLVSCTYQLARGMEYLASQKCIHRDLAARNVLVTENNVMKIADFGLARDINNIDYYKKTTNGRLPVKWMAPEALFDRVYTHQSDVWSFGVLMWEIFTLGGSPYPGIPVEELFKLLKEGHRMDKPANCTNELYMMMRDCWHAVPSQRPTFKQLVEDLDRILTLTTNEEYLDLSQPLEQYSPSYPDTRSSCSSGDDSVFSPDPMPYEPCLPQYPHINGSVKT", "assay": "biochemical", "format": "biochemical", "settings": "FGFR2 N549H"}, "various kinases [10]": {"molecular_target": "various kinases (Homo sapiens, UniProt O75582)", "sequence (O75582 whole entry)": "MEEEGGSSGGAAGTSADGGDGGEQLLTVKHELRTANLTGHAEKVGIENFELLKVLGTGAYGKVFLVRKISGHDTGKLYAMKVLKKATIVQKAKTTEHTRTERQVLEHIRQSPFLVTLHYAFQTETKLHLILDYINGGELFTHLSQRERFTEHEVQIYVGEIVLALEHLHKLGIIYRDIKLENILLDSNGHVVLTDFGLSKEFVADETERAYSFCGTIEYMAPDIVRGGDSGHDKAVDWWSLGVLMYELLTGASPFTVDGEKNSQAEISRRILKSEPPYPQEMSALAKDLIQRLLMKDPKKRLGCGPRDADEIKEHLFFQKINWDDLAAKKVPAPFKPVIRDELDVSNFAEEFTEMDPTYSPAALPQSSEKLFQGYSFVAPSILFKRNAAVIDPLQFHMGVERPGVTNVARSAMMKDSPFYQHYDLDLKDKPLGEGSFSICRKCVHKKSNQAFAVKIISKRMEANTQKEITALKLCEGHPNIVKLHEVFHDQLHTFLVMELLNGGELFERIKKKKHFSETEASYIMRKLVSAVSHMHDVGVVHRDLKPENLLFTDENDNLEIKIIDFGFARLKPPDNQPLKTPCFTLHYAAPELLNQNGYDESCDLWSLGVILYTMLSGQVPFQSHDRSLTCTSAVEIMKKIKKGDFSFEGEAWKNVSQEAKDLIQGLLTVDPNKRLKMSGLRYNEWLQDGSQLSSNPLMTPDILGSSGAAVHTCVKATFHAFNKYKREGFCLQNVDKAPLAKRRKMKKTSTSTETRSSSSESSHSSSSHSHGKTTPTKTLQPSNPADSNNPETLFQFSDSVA", "assay": "biochemical", "format": "biochemical", "settings": "kinase RPS6KA5 (MSK1); ZLYTE"}, "various kinases [11]": {"test_system": "various kinases", "assay": "biochemical", "format": "biochemical", "settings": "for % Inhibition Average / % Inhibition Duplicate #1 / % Inhibition Duplicate #2: ZLYTE"}, "BT-12 AT/RT cells": {"test_system": "BT-12 AT/RT cells", "assay": "Confluency assay (IncuCyte ZOOM), BT-12", "format": "cell-based, human", "settings": "increasing concentrations starting at 31.25nM, 48 hours, p-value=0.001", "method": "For further evaluation of the effect of the PLK4 inhibitor over tumor cell proliferation, confluency was measured over a 48 hour period. MON, BT-12, G401 and DAOY cells were plated in 96-well plates with a density of 6 x 10^4 per well. […] Confluency was monitored for 48 hours by taking phase contrast images every 2 hours and measured using an IncuCyte ZOOM system (Essen BioScience, USA). Experiments were performed in triplicates."}, "[12]": {"test_system": "G401, BT-12, BT-16, DAOY and D283 cell lines", "assay": "Immunofluorescence for gamma-tubulin (centriole number), other RT and MB lines", "format": "cell-based, human", "method": "as §1"}, "[13]": {"test_system": "non-neoplastic human fibroblast cell line HFF-SCC058", "assay": "Flow cytometry cell cycle analysis (polyploidy), fibroblasts", "format": "cell-based", "settings": "100nM", "method": "Cell cycle evaluation was performed by staining the cells with PI (Thermo Fisher Scientific, USA) according to manufacturer’s instructions. […] Data was analyzed using Modfit LT from Verity Software House. Experiments were performed in triplicates."}}, "note": "Several values for one entry are separate records, joined by “and”; a condition that tells them apart may be missing. Equal values may be shown once.", "data": [{"smiles": "COc1ccc2c(c1)[C@]1(C[C@H]1c1ccc3c(/C=C/c4ccc(CN5C[C@@H](C)O[C@@H](C)C5)cc4)n[nH]c3c1)C(=O)N2", "note": "[CFI-400945]", "values": [{"measurement": "inhibition at 0.5 µM", "setting": "AURKC", "value": 84, "unit": "%"}, {"measurement": "centrioles' number", "setting": "MON rhabdoid cells; 100nM", "value": "slight increase"}, {"measurement": "centrioles' number", "setting": "MON rhabdoid cells; 500nM", "value": "significant depletion"}, {"measurement": "% Inhibition", "setting": "various kinases [1]", "value": "-3% and -1%"}, {"measurement": "% Inhibition", "setting": "various kinases [2]", "value": "6% and 7%"}, {"measurement": "% Inhibition", "setting": "various kinases [3]", "value": "-5% and 0%"}, {"measurement": "% Inhibition Average", "setting": "various kinases [4]", "value": 3, "unit": "%"}, {"measurement": "% Inhibition Duplicate #1", "setting": "various kinases [4]", "value": 4, "unit": "%"}, {"measurement": "% Inhibition Duplicate #2", "setting": "various kinases [4]", "value": 2, "unit": "%"}, {"measurement": "% Inhibition", "setting": "various kinases [5]", "value": "13% and 7%"}, {"measurement": "% Inhibition Average", "setting": "various kinases [6]", "value": -1, "unit": "%"}, {"measurement": "% Inhibition Duplicate #1", "setting": "various kinases [6]", "value": -1, "unit": "%"}, {"measurement": "% Inhibition Duplicate #2", "setting": "various kinases [6]", "value": -2, "unit": "%"}, {"measurement": "% Inhibition", "setting": "various kinases [7]", "value": "8% and 5%"}, {"measurement": "% Inhibition", "setting": "various kinases [8]", "value": "14% and 10%"}, {"measurement": "% Inhibition", "setting": "various kinases [9]", "value": "12% and 18%"}, {"measurement": "% Inhibition Average", "setting": "various kinases [10]", "value": 3, "unit": "%"}, {"measurement": "% Inhibition Duplicate #1", "setting": "various kinases [10]", "value": 2, "unit": "%"}, {"measurement": "% Inhibition Duplicate #2", "setting": "various kinases [10]", "value": 4, "unit": "%"}, {"measurement": "% Inhibition", "setting": "various kinases [11]; LYN B", "value": "7% and 9%"}, {"measurement": "% Inhibition Average", "setting": "various kinases [11]; kinase PRKCB2 (PKC beta II)", "value": 13, "unit": "%"}, {"measurement": "% Inhibition Duplicate #1", "setting": "various kinases [11]; kinase PRKCB2 (PKC beta II)", "value": 12, "unit": "%"}, {"measurement": "% Inhibition Duplicate #2", "setting": "various kinases [11]; kinase PRKCB2 (PKC beta II)", "value": 14, "unit": "%"}, {"measurement": "% Inhibition Average", "setting": "various kinases [11]; kinase SRC N1", "value": 14, "unit": "%"}, {"measurement": "% Inhibition Duplicate #1", "setting": "various kinases [11]; kinase SRC N1", "value": 14, "unit": "%"}, {"measurement": "% Inhibition Duplicate #2", "setting": "various kinases [11]; kinase SRC N1", "value": 14, "unit": "%"}, {"measurement": "FC, delay in reaching confluency", "setting": "BT-12 AT/RT cells", "value": 1.89}, {"measurement": "centrioles' number", "setting": "[12]; 100nM", "value": "increase"}, {"measurement": "centrioles' number", "setting": "[12]; 500nM", "value": "significant decrease"}, {"measurement": "polyploidy (cell cycle analysis)", "setting": "[13]", "value": "No effect"}]}]}
